Assays:
Type in all cases: cell-based
[1] = system: IL-6; assay: Pro-inflammatory IL-6 release by LPS stimulated RAW264.7 macrophages (ELISA); settings: for comparative effectiveness in decreasing IL-6 secretion (in words): 5-20 μg/ml individually, 75 μg/ml mixture, LPS stimulated, FIG. 3
Procedure: The pro-inflammatory IL-6 release by RAW264.7 macrophages was assessed using the IL-6 Quantikine ELISA assay kit (R&D, Minneapolis, Minn.) according to the manufacturer's protocol. Briefly, 2×10^6 of cells were plated in 6-well plates and allowed to settle for 2-4 h, followed by incubation with different micronutrients and plant extracts (5-20 μg/ml) 24 h at 37° C. in 5% CO2 atmosphere. After the incubation period, cells were stimulated with LPS (10 ng/ml) for additional 24 h and all supernatants were collected and subjected to ELISA assay according to manufacturer's protocol. As a positive control, LPS-stimulated cells without treatment were used. All experiments were done in triplicate.
The effect of naturally-derived agents and their mixture on release of pro-inflammatory IL-6 by RAW264.7 macrophage cell line. Macrophages were pre-incubated with different micronutrients and plant extracts (5-20 μg/ml) individually and in a mixture followed by their stimulation with Lipopolysaccharide (LPS). Each column represents the mean±standard deviation (n=4).

[2] = system: RAW264.7 macrophages; assay: In vitro phagocytic assay (nitroblue tetrazolium (NBT) reduction test), RAW264.7 macrophages; settings: 5-20 μg/ml individually, 75 μg/ml mixture, 24 h, FIG. 1A
Procedure: RAW264.7 macrophages (5×10^6 cells/well of a 96-well plate) were cultured with different micronutrients and plant extracts (5-20 μg/ml) for 24 h at 37° C. Thereafter, 20 μl C. albicans or S. mutans (5×10^7 cells/ml in PBS) suspension, and 20 μl nitroblue tetrazolium (1.5 mg/ml of NBT in PBS) were added to each well. Wells that received PBS+DMSO were used as control. Next, cells were incubated for 3 h at 37° C., the supernatant was removed, and the adherent macrophages were rinsed with RPMI 1640. The cells were air dried before 80 μl of 2M KOH and 100 μl DMSO were added to each well. The absorbance was measured at 570 nm using the microplate reader. Percentage of NBT reduction (reflecting phagocytic activity) was calculated as following equation: Phagocytic Index=(ODsample−ODcontrol)/ODcontrol.
The assay used nitroblue tetrazolium (NBT) reduction test after treatment with different individual micronutrients and plant extracts (5-20 μg/ml) and their combination for 24 h at 37° C. PI and phagocytosis was tested using C. albicans and S. mutants. Values shown are mean±standard deviation (n=4).

[3] = system: YAC-1 cells; assay: Cytotoxicity assay of natural killer (NK) cells toward target YAC-1 cells (MTT); settings: individual compounds 5-20 μg/ml, 24 h, FIG. 2
Procedure: Cytotoxicity Assay of Natural Killer (NK) Cells were performed using splenic natural killer (as the effector cells) activity assay was carried out according as described by Yi et al. Carbohydr. Polym. 2012, 87:636-643. The splenocytes/splenic NK cells were plated into 96-well plates at a density of 1×10^7 cells/ml per well in a 50 μl volume, and stimulated with different micronutrients and plant extracts (5-20 μg/ml) for 24 h at 37° C. Then, YAC-1 cells (1×10^6 cells/ml) were added into all experimental wells (group) and complete medium only was placed in the other wells as the effector control. At the same time, complete medium (100 μl), containing only YAC-1 cells (1×10^6 cells/ml), was added into empty wells as the target control. […] The absorbance was measured at 570 nm using a microplate reader. Cytotoxicity of NK cell was expressed as Cytotoxic Index (percent lysis of target cells): CI=[ODT−(ODexp.−ODE)]/ODT×100], where ODT represents OD value of the target control, whereas ODexp. and ODE represent OD value of the experimental group and effector control, respectively.
Cytotoxicity of NK cells toward target YAC-1 cells in the presence of different micronutrients and plant extracts (5-20 μg/ml) used individually and in a combination for 24 h at 37° C. Cytotoxicity of NK cells was assessed by the MTT assay and expressed as the mean±standard deviation (n=4).

For O=C(O)CCCCC1CCSS1 (stereo not drawn) [Alpha lipoic acid], the “comparative effectiveness in decreasing IL-6 secretion (in words)” value [1] was “best natural compounds”.
In the case of O=C1O[C@H]([C@@H](O)CO)C(O)=C1O [Vitamin C], the “comparative effectiveness in decreasing IL-6 secretion (in words)” value [1] is reported as “best natural compounds” and the “comparative effectiveness in stimulating phagocytic activity of RAW264.7 macrophages (in words)” value [2] is reported as “most effective individual agents”.
For Fucoidan, the “comparative effectiveness on NK cell cytotoxicity (in words)” value [3] was “two most effective individual compounds”.
Lipopolysaccharide [LPS] was tested, and the “stimulation of IL-6 secretion by exposure of RAW264.7 macrophages to LPS” value ([1]; LPS 10 ng/ml, 24 h, no treatment (positive control)) was “over 300%”.
